Like-named read-outs stand apart in the source and are kept apart here.
Test system: Trichomonas vaginalis G3 trophozoites
Conditions: for T.vaginalis_Absorbance_Rep1: replicate 1, raw absorbance; for T.vaginalis_Absorbance_Rep2: replicate 2, raw absorbance; for T. vaginalis HTS result in words: 384-well, 25 μL, 10,000 cells/mL, 48 h, biological duplicates, hit = >50% inhibition
[1] = HTS replicate 1, parasite screen 1 µg/mL
[2] = HTS replicate 2, parasite screen 1 µg/mL
[3] = HTS, parasite screen at 1 µg/mL, replicate 1
[4] = HTS, parasite screen at 1 µg/mL
[5] = HTS, parasite screen at 1 µg/mL, replicate 2

Compound	T.vaginalis_%inb_Rep1 [1]	T.vaginalis_%inb_Rep2 [2]	T.vaginalis_%inb_Rep1 [3]	T.vaginalis_Absorbance_Rep1 [4]	T.vaginalis_%inb_Rep2 [5]	T.vaginalis_Absorbance_Rep2 [4]	T. vaginalis HTS result in words
CCC(C)C1NC(=O)c2c1n(C)c1ccccc1c2=O (stereo not shown) [Quinolactacin A1]	10.96%	16.33%					
COc1ccc([C@@]2(O)c3c(ccc(/C=C/[C@]4(C)CCC(C)(C)CO4)c3O)NC(=O)[C@@H]2OC)cc1 [Penigequinolone A]	16.23%	11.87%					
CCOC(=O)c1c(C)cc(O)cc1O [Ethyl orsellinate]			14.45%	0.987	11.67%	0.817	
Cc1c2c(c(O)c3c(O)ccc(Cl)c13)C(=O)C1(O)C(O)=C(C(N)=O)C(=O)C(N(C)C)C1C2.Cl (stereo not shown)			10.90%	0.917	9.56%	0.784	
CCC1OC2(CCC1C)CC1CC(CC=C(C)CC(C)C=CC=C3COC4C(=NO)C(C)=CC(C(=O)O1)C34O)O2 (stereo not shown) [Milbemycin A4 oxime]	13.39%	13.53%					
Cc1ccc2c(c1O)C(=O)c1c(cc(O)c(C(=O)O)c1C)[C@]2(C)OO[C@@]1(C)c2cc(O)c(C(=O)O)c(C)c2C(=O)c2c1ccc(C)c2O [Oxanthromicin, (+)]	15.31%	5.45%					
C[C@@H]1C=C2C(=O)O[C@@H]3CC[C@H](C1)[C@]23O [Galiellalactone]			19.07%	1.078	5.71%	0.724	
Enniatin A				0.983		0.865	
ikarugamycin [reference compound]							supported the anti-trichomonal activity
CC(=O)c1c(O)cc(O)c(C(C)=O)c1O [Diacetylphloroglucinol]			9.32%	0.882	10.70%	0.768	
CN(C)C1C(=O)C(C(N)=O)=C(O)C2(O)C(=O)C3=C(O)c4c(O)cccc4C(C)(O)C3C(O)C12 (stereo not shown) [Epioxytetracycline]			13.46%	0.959	17.43%	0.861	
O=c1[nH]c2ccccc2c(-c2cccc(O)c2)c1O [Viridicatol]			6.71%		14.99%		
C=C1CC[C@H]2C(C)(C)CCC[C@]2(C)[C@H]1C[C@@]12C[C@H]3C(=O)N[C@@H](CC(C)C)C(=O)N3[C@@H]1Nc1ccccc12 [Drimentine A]			15.46%	0.996	4.92%	0.688	
COc1ccc(C[C@H]2NC[C@H](O)[C@H]2OC(C)=O)cc1 [anisomycin, reference compound]							supported the anti-trichomonal activity
COc1cccc2nc3c(OC)cccc3nc12 [Dimethoxyphenazine, 1,6-]			12.87%	0.948	14.10%	0.815	
CC[C@H]1OC(=O)[C@H](C)[C@@H](O[C@H]2C[C@@](C)(OC)[C@@H](O)[C@H](C)O2)[C@H](C)[C@@H](O[C@@H]2O[C@H](C)C[C@H](N(C)C)[C@H]2O)[C@](C)(O)C[C@@H](C)C(=O)[C@H](C)[C@@H](O)[C@H]1C [Erythromycin B]			4.47%	0.792	1.66%	0.643	
C/C=C(\C)c1c(Cl)c(OC)c(C)c2c1Oc1c(Cl)c(O)c(Cl)c(C)c1C(=O)O2 [Nidulin]	13.95%	15.46%					
CC[C@H]1CCC[C@H](O)[C@@H](C)C(=O)C2=C[C@H]3[C@@H]4C[C@H](O)C[C@H]4CC[C@H]3[C@@H]2CC(=O)O1 [Dihydrospinosyn A aglycone]			13.89%	0.967	12.58%	0.794	

Reference: publication PMC7897990, “TriTOX: A novel Trichomonas vaginalis assay platform for high-throughput screening of compound libraries” (International Journal for Parasitology: Drugs and Drug …, 2021)
